From patent publication US8946197B2, “Transglutaminase TG2 inhibitors, pharmaceutical compositions, and methods of use thereof” (CHDI Foundation, Inc., priority 2009, dated 2015) come the findings set out here.

“And” between values parts separate entries of the source, which are not always exact repeats. Equal entries are not always repeated. Some results are limits rather than exact numbers.

The test deals with T1, human TG2 (Homo sapiens, UniProt P21980).
T1 sequence (P21980 1-687): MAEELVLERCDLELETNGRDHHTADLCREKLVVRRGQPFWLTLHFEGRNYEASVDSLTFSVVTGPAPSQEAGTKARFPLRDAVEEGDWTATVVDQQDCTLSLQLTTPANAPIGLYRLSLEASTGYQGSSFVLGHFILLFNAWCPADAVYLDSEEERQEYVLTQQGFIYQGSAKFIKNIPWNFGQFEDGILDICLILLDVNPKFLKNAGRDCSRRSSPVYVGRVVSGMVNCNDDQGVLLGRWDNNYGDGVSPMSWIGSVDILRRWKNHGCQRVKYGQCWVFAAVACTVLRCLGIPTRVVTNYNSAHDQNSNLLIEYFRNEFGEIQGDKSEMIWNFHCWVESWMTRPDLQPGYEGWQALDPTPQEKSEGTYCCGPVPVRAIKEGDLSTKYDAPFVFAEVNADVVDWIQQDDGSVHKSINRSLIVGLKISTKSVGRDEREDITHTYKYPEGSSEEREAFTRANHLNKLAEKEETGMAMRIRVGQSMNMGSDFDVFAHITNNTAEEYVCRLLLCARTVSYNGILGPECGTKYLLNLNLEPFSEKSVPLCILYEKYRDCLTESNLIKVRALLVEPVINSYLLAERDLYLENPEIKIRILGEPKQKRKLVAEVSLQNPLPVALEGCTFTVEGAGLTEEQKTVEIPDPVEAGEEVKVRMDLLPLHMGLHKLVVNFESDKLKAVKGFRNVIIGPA
Put plainly: fluorescent screening assay for human TG2. The conditions noted are these: 20 nM TG2, 8 μM N,N-dimethylated Casein, 16 μM KxD, pH 7.4, 37° C. The test is classed as biochemical. As for the experimental part:
(§1) The fluorescent screening assay for human TG2 was performed as described herein: Assay conditions were 20 nM TG2, 8 μM N,N-dimethylated Casein (NMC) and 16 μM K×D (used for all transglutaminase assays) in 25 mM Hepes, pH 7.4, 250 mM NaCl, 2 mM MgCl2, 0.5 mM CaCl2, 0.2 mM DTT, 0.05% Pluronic F-127 at 37° C. A time point was taken with a microplate reader (Safire or Ultra, Tecan; ex: 350 nm, em: 535 nm) every 3 minutes for up to 2 hours and the initial linear reaction progress was used to determine the reaction velocity as a measure for enzyme activity. Assay conditions were identical for human TG6 and similar for human TG1 and mouse TG2 apart from enzyme concentration (mTG2 at 5 nM; TG1 at 10 nM) and CaCl2 concentration (0.2 mM for mTG2; 0.05 mM for TG1). Factor XIIIa was activated using 0.1 μg/μl thrombin (Sigma) in 35 mM Tris pH 8.0 for 20 min at 30° C. and the transamidation reaction was performed with 20 nM Factor XIIIa in 50 mM Tris pH 8.0, 1.25 mM CaCl2, 0.05% Pluronic, 0.2 mM DTT. TG3 was activated with 0.02 μg/μl thrombin under the same conditions as Factor XIIIa and assay conditions were 10 nM TG3 in 50 mM Hepes, pH 8, 20 mM CaCl2, 0.2 mM DTT, 0.05% Pluronic F-127.
as §1, with “A” for “The”
As for `C=CC(=O)Nc1ccc(S(=O)(=O)N2CCC(N(C)C(=O)C34CC5CC(CC(C5)C3)C4)CC2)cc1` [Adamantane-1-carboxylic acid [1-(4-acryloylamino-benzenesulfonyl)-piperidin-4-yl]-methyl-amide], the IC50 is 100 to 1000 nM and < 100 nM. `C=CC(=O)Nc1ccc(S(=O)(=O)N2CCc3cc(S(=O)(=O)N(C)C)ccc32)cc1` [N-[4-(5-Dimethylsulfamoyl-2,3-dihydro-indole-1-sulfonyl)-phenyl]-acrylamide]: the 50% inhibitory concentration (IC50) is 100 to 1000 nM and < 100 nM.

`C=CC(=O)Nc1ccc(S(=O)(=O)N2CCN(C(=O)OC(C)(C)C)[C@@H](C(C)C)C2)cc1` [4-(4-Acryloylamino-benzenesulfonyl)-2-isopropyl-piperazine-1-carboxylic acid tert-butyl ester]: the IC50 was 100 to 1000 nM and < 100 nM.

As to `C=CC(=O)Nc1ccc(S(=O)(=O)N2CCN(C(=O)OCc3ccccc3)C(CC(=O)NC3C4CC5CC(C4)CC3C5)C2)cc1` (centres unmarked) [4-(4-Acryloylamino-benzenesulfonyl)-2-(adamantan-2-ylcarbamoylmethyl)-piperazine-1-carboxylic acid benzyl ester], the half-inhibitory concentration (IC50) was 100 to 1000 nM and < 100 nM. To `C=CC(=O)Nc1ccc(S(=O)(=O)N2CCN(C(=O)OCc3cccc(F)c3F)CC2)cc1` [4-(4-Acryloylamino-benzenesulfonyl)-piperazine-1-carboxylic acid 2,3-difluoro-benzyl ester] belongs 100 to 1000 nM and < 100 nM; to `C=CC(=O)Nc1ccc(S(=O)(=O)N2CCNCC2)c(C)c1` [N-[3-Methyl-4-(piperazine-1-sulfonyl)-phenyl]-acrylamide], 1000 to 25000 nM.

As to `C=CC(=O)Nc1ccc(S(=O)(=O)NC2CCCN(CC)C2)cc1` (centres unmarked) [N-[4-(1-Ethyl-piperidin-3-ylsulfamoyl)-phenyl]-acrylamide], the IC50 was in the range of 1000 to 25000 nM.

Molecule `C=CC(=O)Nc1cccc(S(=O)(=O)N2CCN(CCCc3ccccc3)CC2)c1` [N-{3-[4-(3-Phenyl-propyl)-piperazine-1-sulfonyl]-phenyl}-acrylamide] gave an IC50 of 1000 to 25000 nM.

On to `CC(C)(C)OC(=O)N1CCN(S(=O)(=O)c2ccc(NC(=O)/C=C\Cl)cc2)CC1` [(Z)-tert-butyl 4-(4-(3-chloroacrylamido)phenylsulfonyl)piperazine-1-carboxylate], for which the IC50 is 100 to 1000 nM. Consider `C=CC(=O)Nc1ccc(S(=O)(=O)N2CCN(c3nccc(OC)n3)CC2)cc1` [N-{4-[4-(4-Methoxy-pyrimidin-2-yl)-piperazine-1-sulfonyl]-phenyl}-acrylamide], for which the IC50 is < 100 nM and 100 to 1000 nM. To `C=CC(=O)Nc1ccc(S(=O)(=O)N2CCN(C(=O)OC(C)(C)C)CC2)c(Cl)c1` [4-(4-Acryloylamino-2-chloro-benzenesulfonyl)-piperazine-1-carboxylic acid tert-butyl ester] belongs 100 to 1000 nM and < 100 nM; to `CC(C)(C)OC(=O)N1CCN(S(=O)(=O)c2ccc(NC(=O)/C=C/Cl)cc2)CC1` [(E)-tert-butyl 4-(4-(3-chloroacrylamido)phenylsulfonyl)piperazine-1-carboxylate], 1000 to 25000 nM.

Take `C=CC(=O)Nc1ccc(S(=O)(=O)N2CCN(C(=O)CCc3ccccn3)CC2)cc1` [N-{4-[4-(3-Pyridin-2-yl-propionyl)-piperazine-1-sulfonyl]-phenyl}-acrylamide]: the IC50 was 100 to 1000 nM and < 100 nM. In the case of `C=CC(=O)Nc1ccc(S(=O)(=O)N2CCN(C(=O)C3CC3c3ccccc3)CC2)cc1` (centres unmarked) [N-{4-[4-(2-Phenyl-cyclopropanecarbonyl)-piperazine-1-sulfonyl]-phenyl}-acrylamide] it was 100 to 1000 nM and < 100 nM; in that of `C=CC(=O)Nc1ccc(S(=O)(=O)N(Cc2ccccc2)Cc2ccc(Cl)cc2)cc1` [N-{4-[Benzyl-(4-chloro-benzyl)-sulfamoyl]-phenyl}-acrylamide], 1000 to 25000 nM. Regarding `C=CC(=O)Nc1ccc(S(=O)(=O)N2CCN(C(=O)C3CC3)CC2)cc1` [N-[4-(4-Cyclopropanecarbonyl-piperazine-1-sulfonyl)-phenyl]-acrylamide], the IC50 is 100 to 1000 nM and < 100 nM. To `C=CC(=O)Nc1ccc(S(=O)(=O)N2CCN(C(=O)OCc3ccccc3)[C@@H](C)C2)cc1` [4-(4-Acryloylamino-benzenesulfonyl)-2-methyl-piperazine-1-carboxylic acid benzyl ester] belongs 100 to 1000 nM and < 100 nM; to `C=CC(=O)Nc1ccc(S(=O)(=O)N2CCN(C(=O)OCc3ccc(C)cc3)CC2)cc1` [4-(4-Acryloylamino-benzenesulfonyl)-piperazine-1-carboxylic acid 4-methyl-benzyl ester], 100 to 1000 nM and < 100 nM. Take `C=CC(=O)Nc1ccc(S(=O)(=O)N2CCN(C(=O)N(C)C)CC2)cc1` [4-(4-Acryloylamino-benzenesulfonyl)-piperazine-1-carboxylic acid dimethylamide]: the IC50 was 100 to 1000 nM and < 100 nM. To `C=CC(=O)Nc1ccc(S(=O)(=O)N2CCN(C(=O)OCC(C)C)CC2)cc1` [4-(4-Acryloylamino-benzenesulfonyl)-piperazine-1-carboxylic acid isobutyl ester] belongs 100 to 1000 nM and < 100 nM; to `C=CC(=O)Nc1ccc(S(=O)(=O)N2CCN(c3ccccn3)CC2)cc1` [N-[4-(4-Pyridin-2-yl-piperazine-1-sulfonyl)-phenyl]-acrylamide], 100 to 1000 nM and < 100 nM; to `C=CC(=O)Nc1ccc(S(=O)(=O)N2CCN(c3cc(C)ccn3)CC2)cc1` [N-{4-[4-(4-Methyl-pyridin-2-yl)-piperazine-1-sulfonyl]-phenyl}-acrylamide], < 100 nM and 100 to 1000 nM. Molecule `C=CC(=O)Nc1ccc(S(=O)(=O)N2CCN(c3ccc4ccccc4c3)CC2)cc1` [N-[4-(4-Naphthalen-2-yl-piperazine-1-sulfonyl)-phenyl]-acrylamide] registered an IC50 of 1000 to 25000 nM.

Regarding `C=CC(=O)Nc1ccc(S(=O)(=O)N2CCN(C(=O)C3CCCC3)CC2)cc1` [N-[4-(4-Cyclopentanecarbonyl-piperazine-1-sulfonyl)-phenyl]-acrylamide], the IC50 was 100 to 1000 nM and < 100 nM. To `C=CC(=O)Nc1ccc(S(=O)(=O)N2CCN(c3cccc(C)n3)CC2)cc1` [N-{4-[4-(6-Methyl-pyridin-2-yl)-piperazine-1-sulfonyl]-phenyl}-acrylamide] belongs 100 to 1000 nM and < 100 nM; to `C=CC(=O)Nc1ccc(S(=O)(=O)N2CCN(C(=O)OC(C)(C)C)C(c3ccco3)C2)cc1` (centres unmarked) [4-(4-Acryloylamino-benzenesulfonyl)-2-furan-2-yl-piperazine-1-carboxylic acid tert-butyl ester], 100 to 1000 nM and < 100 nM. Regarding `C=CC(=O)Nc1ccc(S(=O)(=O)N2CCN(C(=O)OC(C)(C)C)CC2)c(C)c1` [4-(4-Acryloylamino-2-methyl-benzenesulfonyl)-piperazine-1-carboxylic acid tert-butyl ester], the IC50 fell in the range of 1000 to 25000 nM.

Consider `C=CC(=O)Nc1ccc(S(=O)(=O)N2CCN(C(=O)N3CCCC4CCCCC43)CC2)cc1` (centres unmarked) [N-{4-[4-(Octahydro-quinoline-1-carbonyl)-piperazine-1-sulfonyl]-phenyl}-acrylamide], for which the IC50 is 100 to 1000 nM and < 100 nM. In the case of `C/C=C/C(=O)Nc1ccc(S(=O)(=O)N2CCN(C(=O)OC(C)(C)C)CC2)cc1` [(E)-tert-butyl 4-(4-but-2-enamidophenylsulfonyl)piperazine-1-carboxylate] it was 1000 to 25000 nM.

A word on the IC50: it is the concentration at which inhibition is half-maximal. A low value points to higher potency.
